The values below are quoted from earlier work in PMC6151550, “Inhibitory Effect of Selaginellins from Selaginella tamariscina (Beauv.) Spring against Cytochrome P450 and Uridine 5′-Diphosphoglucuronosyltransferase Isoforms on Human Liver Microsomes” (Molecules : A Journal of Synthetic Chemistry and Natural …, 2017).

A word on the Ki: it is a measure of affinity in units of concentration, obtained from inhibition or displacement. For orientation: IC50 means the point on the concentration scale where inhibition reaches its midpoint.

One data set has as its system UGT1A1. The arrangement: method as in PMID 25216634. The conditions noted are these: read-out: Ki against UGT1A1-mediated SN-38 glucuronidation; cited from earlier work.
Another data set relates to CYP2C8. The conditions noted are these: cited from earlier work.

As for `CC(C)=CCc1cc2c(cc1O)oc(=O)c1c3ccc(O)cc3oc21` [psoralidin], in the data set with UGT1A1, the Ki is 5.8 µM.
As to `O=c1c(O)c(-c2ccc(O)c(O)c2)oc2cc(O)cc(O)c12` [quercetin], in the data set with CYP2C8, the IC50 is […].
With `Cc1c(C)c2c(c(C)c1O)CCC(C)(COc1ccc(CC3SC(=O)NC3=O)cc1)O2` (stereo not drawn) [troglitazone], the IC50 with CYP2C8 is 2.3 µM.
